Assay results as given in patent publication US8017611B2, “Pyridine and pyrazine derivatives -083” (AstraZeneca AB, priority 2007, dated 2011).
Marks after values point to notes of the source that are not given here.

These compounds were tested against T1, recombinant Axl tyrosine kinase (Homo sapiens, UniProt P30530) (assay: In vitro Axl kinase assay (AlphaScreen), Test (a)). Conditions: 1 μM; mean calculated from a larger number of replicates than the first value.
T1 construct: encompassing amino acids 473 to 894 of Axl; GST (N); made in house; host or cells: SF126 insect cells
T1 sequence (P30530 473-894): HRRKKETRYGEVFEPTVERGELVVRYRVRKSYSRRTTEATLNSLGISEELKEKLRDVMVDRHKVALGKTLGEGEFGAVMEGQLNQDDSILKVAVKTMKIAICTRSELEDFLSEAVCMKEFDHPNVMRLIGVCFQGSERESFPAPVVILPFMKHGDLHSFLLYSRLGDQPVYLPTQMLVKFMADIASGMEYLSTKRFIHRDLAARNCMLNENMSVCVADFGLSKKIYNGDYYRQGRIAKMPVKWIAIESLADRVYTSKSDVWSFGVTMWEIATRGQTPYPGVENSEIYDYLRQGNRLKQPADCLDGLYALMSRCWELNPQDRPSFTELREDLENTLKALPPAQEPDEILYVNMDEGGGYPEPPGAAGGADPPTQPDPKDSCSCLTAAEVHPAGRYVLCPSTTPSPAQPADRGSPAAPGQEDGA
Type: biochemical
Procedure: Test compounds were prepared as 10 mM stock solutions in dimethylsulphoxide (DMSO) and diluted in DMSO as required. Aliquots (120 nl) of compound dilutions were filled into the wells of a Greiner 384-well low volume (LV) white polystyrene plate (Greiner Bio-one) using acoustic dispensing (Labcyte Echo 550). A 10 μl mixture of recombinant purified Axl enzyme, biotinylated peptide substrate (Biotin poly-GAT; CisBio, Catalogue No. 61GATBLB), 0.2 μM adenosine triphosphate (ATP) and a buffer solution [comprising 20 mM Tris-HCl pH 7.5 buffer, 0.01% v/v Tween, 5 mM dithiothreitol (DTT) and 10 mM manganese chloride] was incubated with the compounds at room temperature for 20 minutes.
Control wells that produced a minimum signal corresponding to 100% inhibited enzyme were created by adding 10 μM of Staurosporine.
The percentage kinase inhibition value is the percentage of Axl tyrosine kinase activity inhibited by the test compound at a concentration of 1 μM.

| Compound | % Axl tyrosine kinase inhibition at 1 μM concentration (second value, †) [%] |
| --- | --- |
| Nc1ncc(-c2cccc(N3CCOCC3)c2)cc1-c1nc2ccccc2o1 [Example 2.49] | 94.5 |

Same assay, conditions: 1 μM; mean calculated from a larger number of replicates than the first value; read-out: % Axl tyrosine kinase inhibition at 1 μM concentration (second value, †)

| Compound | inhibition at 1 µM [%] |
| --- | --- |
| CN1CCC(n2cc(-c3cnc(N)c(-c4nc5ccccc5o4)c3)cn2)CC1 [Example 3, 3-(1,3-Benzoxazol-2-yl)-5-[1-(1-methyl-4-piperidyl)pyrazol-4-yl]pyridin-2-amine] | 99.8 |

Same assay, conditions: test compound at 1 μM; first value quoted

| Compound | % Axl tyrosine kinase inhibition at 1 μM concentration |
| --- | --- |
| CCS(=O)(=O)c1ccc(-c2cnc(N)c(-c3nc4ccccc4o3)c2)cc1 [Example 2.1] | 93.7% |
| NCc1cccc(-c2cnc(N)c(-c3nc4ccccc4o3)c2)c1 [Example 2.4] | 99.1% |
| CCS(=O)(=O)c1cccc(-c2cnc(N)c(-c3nc4ccccc4o3)c2)c1 [Example 2.5] | 73.5% |
| Nc1ncc(-c2cccc(CN3CCCC3)c2)cc1-c1nc2ccccc2o1 [Example 2.6] | 99.0% |
| Nc1ncc(-c2ccc(CN3CCOCC3)cc2)cc1-c1nc2ccccc2o1 [Example 2.7] | 99.1% |
| CN(C)CCNC(=O)c1cccc(-c2cnc(N)c(-c3nc4ccccc4o3)c2)c1 [Example 2.8] | 96.5% |
| COCCOc1ccc(-c2cnc(N)c(-c3nc4ccccc4o3)c2)cc1 [Example 2.9] | 40.3% |
| Nc1ncc(-c2ccc(C(=O)N3CCC(O)CC3)cc2)cc1-c1nc2ccccc2o1 [Example 2.11] | 98.9% |
| NCc1ccc(-c2cnc(N)c(-c3nc4ccccc4o3)c2)cc1 [Example 2.13] | 99.7% |
| Nc1ncc(-c2ccc(N3CCNCC3)cc2)cc1-c1nc2ccccc2o1 [Example 2.14] | 99.9% |
| COCc1cccc(-c2cnc(N)c(-c3nc4ccccc4o3)c2)c1 [Example 2.15] | 80.2% |
| Nc1ncc(-c2ccc(CO)cc2)cc1-c1nc2ccccc2o1 [Example 2.16] | 94.0% |
| CNC(=O)c1cccc(-c2cnc(N)c(-c3nc4ccccc4o3)c2)c1 [Example 2.17] | 68.9% |
| CC(=O)Nc1cccc(-c2cnc(N)c(-c3nc4ccccc4o3)c2)c1 [Example 2.20] | 97.6% |
| Nc1ncc(-c2ccc3c(c2)OCCO3)cc1-c1nc2ccccc2o1 [Example 2.21] | 45.4% |
| Nc1ncc(-c2cccc(CN3CCOCC3)c2)cc1-c1nc2ccccc2o1 [Example 2.22] | 97.9% |
| Nc1ncc(-c2ccc3[nH]ncc3c2)cc1-c1nc2ccccc2o1 [Example 2.23] | 87.2% |
| Nc1ncc(-c2cnc3ccccc3c2)cc1-c1nc2ccccc2o1 [Example 2.24] | 88.9% |
| Nc1ncc(-c2ccnc3ccccc23)cc1-c1nc2ccccc2o1 [Example 2.25] | 60.3% |
| CN(C)CCCOc1ccc(-c2cnc(N)c(-c3nc4ccccc4o3)c2)cn1 [Example 2.26] | 99.5% |
| CS(=O)(=O)Nc1ccc(-c2cnc(N)c(-c3nc4ccccc4o3)c2)cc1 [Example 2.27] | 98.0% |
| CN(C)S(=O)(=O)c1ccc(-c2cnc(N)c(-c3nc4ccccc4o3)c2)cc1 [Example 2.28] | 85.1% |
| Nc1ncc(-c2ccc3[nH]ccc3c2)cc1-c1nc2ccccc2o1 [Example 2.29] | 31.3% |

| Compound | % Axl tyrosine kinase inhibition at 1 μM concentration |
| --- | --- |
| Nc1ncc(-c2ccc(S(=O)(=O)NC3CC3)cc2)cc1-c1nc2ccccc2o1 [Example 2.30] | 96.1% |
| Nc1ncc(-c2cccc(N3CCCC3)c2)cc1-c1nc2ccccc2o1 [Example 2.32] | 22.4% |
| NC(=O)c1cccc(-c2cnc(N)c(-c3nc4ccccc4o3)c2)c1 [Example 2.34] | 67.3% |
| Nc1ncc(-c2cccc(CO)c2)cc1-c1nc2ccccc2o1 [Example 2.35] | 93.3% |
| COCc1ccccc1-c1cnc(N)c(-c2nc3ccccc3o2)c1 [Example 2.36] | 98.5% |
| COCc1ccc(-c2cnc(N)c(-c3nc4ccccc4o3)c2)cc1 [Example 2.37] | 91.9% |
| COc1cc(N2CCNCC2)ccc1-c1cnc(N)c(-c2nc3ccccc3o2)c1 [Example 2.38] | 99.0% |
| CN(C)S(=O)(=O)c1cccc(-c2cnc(N)c(-c3nc4ccccc4o3)c2)c1 [Example 2.39] | 17.1* % |
| N#Cc1cccc(-c2cnc(N)c(-c3nc4ccccc4o3)c2)c1 [Example 2.40] | 40.7% |
| CN(C)CCNC(=O)c1ccc(-c2cnc(N)c(-c3nc4ccccc4o3)c2)cc1 [Example 2.41] | 99.9% |
| Nc1ncc(-c2ccc3c(c2)OCO3)cc1-c1nc2ccccc2o1 [Example 2.42] | 15.8** % |
| Nc1ncc(-c2cccc3ccccc23)cc1-c1nc2ccccc2o1 [Example 2.43] | 9.8*** % |
| N#Cc1ccc(-c2cnc(N)c(-c3nc4ccccc4o3)c2)cc1 [Example 2.44] | 25.0% |
| Nc1ncc(-c2cccc(N3CCCCC3)c2)cc1-c1nc2ccccc2o1 [Example 2.46] | 46.4% |
| N#CCc1cccc(-c2cnc(N)c(-c3nc4ccccc4o3)c2)c1 [Example 2.47] | 98.0% |
| CS(=O)(=O)c1cccc(-c2cnc(N)c(-c3nc4ccccc4o3)c2)c1 [Example 2.48] | 97.1% |
| Nc1ncc(-c2cccc(N3CCOCC3)c2)cc1-c1nc2ccccc2o1 [Example 2.49] | 93.6% |
| CN(C)c1cccc(-c2cnc(N)c(-c3nc4ccccc4o3)c2)c1 [Example 2.50] | 90.0% |
| N#CCc1ccc(-c2cnc(N)c(-c3nc4ccccc4o3)c2)cc1 [Example 2.51] | 93.1% |
| CS(=O)(=O)Oc1cccc(-c2cnc(N)c(-c3nc4ccccc4o3)c2)c1 [Example 2.52] | 81.0% |
| CN1CCN(c2cccc(-c3cnc(N)c(-c4nc5ccccc5o4)c3)c2)CC1 [Example 2.53] | 4.2**** % |
| CN1CCN(c2ccc(-c3cnc(N)c(-c4nc5ccccc5o4)c3)cn2)CC1 [Example 2.54] | 99.8% |

Same assay, conditions: test compound at 1 μM; first value quoted; read-out: % Axl tyrosine kinase inhibition at 1 μM concentration

| Compound | inhibition at 1 µM [%] |
| --- | --- |
| CN(C)Cc1ccc(-c2cnc(N)c(-c3nc4ccccc4o3)c2)cc1 [Example 1, 3-Benzoxazol-2-yl-5-[4-(dimethylaminomethyl)phenyl]pyridin-2-amine] | 99.8 |
| CC(C)(C)OC(=O)N1CCC(n2cc(-c3cnc(N)c(-c4nc5ccccc5o4)c3)cn2)CC1 [Example 2.2, tert-butyl 4-[4-[6-amino-5-(1,3-benzoxazol-2-yl)-3-pyridyl]pyrazol-1-yl]piperidine-1-carboxylate] | 99.5 |
| Nc1ncc(-c2cnn(C3CCNCC3)c2)cc1-c1nc2ccccc2o1 [Example 2.3, 3-(1,3-Benzoxazol-2-yl)-5-[1-(4-piperidyl)pyrazol-4-yl]pyridin-2-amine] | 98.6 |
| Nc1ncc(-c2cccc(N3CCNCC3)c2)cc1-c1nc2ccccc2o1 [Example 2.10, 3-(1,3-Benzoxazol-2-yl)-5-(3-piperazin-1-ylphenyl)pyridin-2-amine] | 99.5 |
| Nc1ncc(-c2ccc(N3CCNCC3)nc2)cc1-c1nc2ccccc2o1 [Example 2.19, 3-(1,3-Benzoxazol-2-yl)-5-[6-(piperazin-1-yl)-3-pyridyl]pyridin-2-amine] | 99.8 |
| Nc1ncc(-c2cnn(C3CCCCO3)c2)cc1-c1nc2ccccc2o1 (stereo not shown) [Example 2.55, 3-(1,3-benzoxazol-2-yl)-5-(1-tetrahydropyran-2-ylpyrazol-4-yl)pyridin-2-amine] | 99.2 |
| CN1CCC(n2cc(-c3cnc(N)c(-c4nc5ccccc5o4)c3)cn2)CC1 [Example 3, 3-(1,3-Benzoxazol-2-yl)-5-[1-(1-methyl-4-piperidyl)pyrazol-4-yl]pyridin-2-amine] | 100 |

Same assay, conditions: test compound at 30 μM

| Compound | % of Axl tyrosine kinase activity inhibited at a concentration of 30 μM |
| --- | --- |
| CN(C)S(=O)(=O)c1cccc(-c2cnc(N)c(-c3nc4ccccc4o3)c2)c1 [Example 2.39] | *the compound disclosed in Example 2.39 inhibited 58.6% of Axl tyrosine kinase activity at a concentration of 30 μM. |
| Nc1ncc(-c2ccc3c(c2)OCO3)cc1-c1nc2ccccc2o1 [Example 2.42] | **the compound disclosed in Example 2.42 inhibited 53.6% of Axl tyrosine kinase activity at a concentration of 30 μM. |
| Nc1ncc(-c2cccc3ccccc23)cc1-c1nc2ccccc2o1 [Example 2.43] | ***the compound disclosed in Example 2.43 inhibited 57% of Axl tyrosine kinase activity at a concentration of 30 μM. |
| CN1CCN(c2cccc(-c3cnc(N)c(-c4nc5ccccc5o4)c3)c2)CC1 [Example 2.53] | ****the compound disclosed in Example 2.53 inhibited 82% of Axl tyrosine kinase activity at a concentration of 30 μM. |
